From patent EP0487930B1, “Benzo[C]phenanthridinium derivatives” (NIPPON KAYAKU KABUSHIKI KAISHA, priority 1990, dated 1992)
Structures can show the parent of a compound that is named as a salt. Where two headings read alike, the source gives them in different places.

How the values were obtained:
MMI = assay: Growth inhibition activity against tumor cells (Methylene Blue staining); assay type: cell-based
Description: (§1) Various tumor cells were cultured at 37°C for 24 hours in 5% gaseous carbon dioxide, and then subjected to an action of a test drug for 2-4 days. After that, the cells were stained with 0.05% Methylene Blue. The pigment were extracted from the stained cells. The growth inhibition rate of the cells was determined based on absorbance of the extracted pigment at 660 nm, and the 50% growth inhibitory concentration (IC50) was calculated.
(§2) In this table, the abbreviated expressions have the following tumor cells: HeLa S3 = carcinoma colli; MMI = ovarian cancer; SHIN-3 = ovarian cancer; N-231 = small cell lung cancer; Lu-130 = small cell lung cancer; Nakajima = gastric cancer; and the expression "n.t." represents "not tested". These tests were conducted according to a simultaneous comparison test method, except the case of HeLa S3.

HeLa S3 = assay: as above; assay type: cell-based; settings: Homo sapiens
Description: as §1, §2

SHIN-3 = assay: as above; assay type: cell-based
Description: as §1, §2

Lu-130 = assay: as above; assay type: cell-based
Description: as §1, §2

N-231 = assay: as above; assay type: cell-based
Description: as §1, §2

Nakajima = assay: as above; assay type: cell-based; settings: Nakajima = gastric cancer; test drug for 2-4 days
Description: as §1, §2

[1] = tested on: platelet aggregation caused by platelet activation factor (PAF) in platelet-rich plasma (PRP); assay: Inhibition activity on platelet aggregation (serotonin release, anti-PAF activity); assay type: cell-based, Japanese albino rabbits; settings: Oryctolagus cuniculus, PAF 10^-7 M, serotonin release inhibition rate; for inhibition at 25 µg/mL: Concentration 25 µg/ml; for inhibition at 50 µg/mL: Concentration 50 µg/ml; for inhibition at 100 µg/mL: Concentration 100 µg/ml
Description: Platelet-rich plasma (PRP) was collected from Japanese albino rabbits (weighing 3-4 kg). As a platelet aggregation inducer, platelet activation factor (PAF) was used in a final concentration of 10^-7 M. A test drug was added to PRP. After incubation for a definite period of time, PAF was added to cause a platelet aggregation reaction. The reaction was terminated with EDTA. After a centrifugation, the supernatant was removed to obtain platelet precipitates. Distilled water was added to the platelet precipitates, whereby the serotonin remained in the platelet was reacted with an orthophthalaldehyde reagent to form a serotonin-orthophthaladehyde condensate. The condensate was measured at an excited wavelength of 360 nm and at a measurement wavelength of 475 nm. Anti-PAF activity of the test drug was determined by the following equation. Serotonin release inhibition rate (%) =((Test drug + PAF) value - PAF value)/(Blank value - PAF value)x 100 [formula] In the equation, the expression "value" stands for "serotonin value".

[2] = Storage stability of the powder at room temperature; assay type: physicochemical; settings: stored at room temperature for a long period of time
Text: This compound is a powdery material having a yellowish color immediately after the production thereof. It gradually changes its color into brown. […] This is because a decomposition product, which is difficultly soluble in water, has been formed during the storage of the compound. So, it is not considered that the compound has properties suitable for formulating into a phamaceutical preparation.
2,3-(methylenedioxy)-5-methyl-7-hydroxy-8-ethoxy-benzo[c]phenanthridinium hydrogen sulfate (compound A-0), wherein the acid residue X^- is a hydrogen sulfate ion HSO4^-, is a compound according to the invention, and can be obtained as yellow powder. […] A 0.5 µM aqueous solution of 2,3-(methylenedioxy)-5-ethyl-7-hydroxy-8-methoxy-benzo[c]phenanthridinium chloride, wherein the acid residue X^- is a chloride ion Cl^-, has a pH of 4.3. On the other hand, a 0.5 µM aqueous solution of 2,3-(methylenedioxy)-5-methyl-7-hydroxy-8-methoxy-benzo[c]phenanthridinium hydrogen sulfate according to the invention, wherein the acid residue X^- is a hydrogen sulfate ion HSO4^-, has a pH of 3.9. […] There are no disadvantages in the pharmaceutical activities of such compounds when they have the form of hydrogen salts such as hydrogen sulfate salts. Therefore, the hydrogen salt compounds are practically useful as medicines in view of the enhanced stability thereof.

[3] = MMI = ovarian cancer, test drug for 2-4 days, read-out: IC50
[4] = SHIN-3 = ovarian cancer, test drug for 2-4 days, read-out: IC50
[5] = Lu-130 = small cell lung cancer, test drug for 2-4 days, read-out: IC50
[6] = N-231 = small cell lung cancer, test drug for 2-4 days, read-out: IC50

Compound | IC50 (MMI) | IC50 (HeLa S3; HeLa S3) | IC50 (SHIN-3) | IC50 (Lu-130) | IC50 (N-231) | IC50 (MMI; [3]) | IC50 (Nakajima) | IC50 (SHIN-3; [4]) | IC50 (Lu-130; [5]) | IC50 (N-231; [6]) | inhibition at 25 µg/mL [1] | inhibition at 50 µg/mL [1] | inhibition at 100 µg/mL [1] | also measured
COc1ccc2c(c[n+](C)c3c4cc5c(cc4ccc23)OCO5)c1O [Compound A-0, 2,3-(methylenedioxy)-5-methyl-7-hydroxy-8-methoxy-benzo[c]phenanthridinium hydrogen sulfate salt] | 0.12 µg/mL | 0.15 µg/mL | 0.192 µg/mL | 0.055 µg/mL | 0.036 µg/mL | – | – | – | – | – | – | – | – | –
CC[n+]1cc2c(O)c(OC)ccc2c2ccc3cc4c(cc3c21)OCO4 [Compound A-1, 2,3-(methylenedioxy)-5-ethyl-7-hydroxy-8-methoxy-benzo[c]phenanthridinium hydrogen sulfate salt] | – | – | – | – | – | 0.165 µg/mL | 0.426 µg/mL | 0.17 µg/mL | 0.25 µg/mL | 0.04 µg/mL | 49.6% | 74.1% | 96.5% | IC50 (HeLa S3; HeLa S3 = carcinoma colli, test drug for 2-4 days, not part of the simultaneous comparison test, read-out: IC50): 0.177 µg/mL; inhibition at 12.5 µg/mL ([1]; Concentration 12.5 µg/ml): 25.2%
COc1ccc2c(c[n+](C)c3c4cc5c(cc4ccc23)OCO5)c1O [2,3-(methylenedioxy)-5-methyl-7-hydroxy-8-methoxy-benzo[c]phenanthridinium chloride] | – | – | – | – | – | – | – | – | – | – | – | – | – | stability on storage [2]: gradually decomposed
CCC[n+]1cc2c(O)c(OC)ccc2c2ccc3cc4c(cc3c21)OCO4 [Compound A-2, 2,3-(methylenedioxy)-5-(n-propyl)-7-hydroxy-8-methoxy-benzo[c]phenanthridinium hydrogen sulfate salt] | – | – | – | – | – | 0.273 µg/mL | 0.777 µg/mL | 0.414 µg/mL | 0.108 µg/mL | 0.085 µg/mL | – | – | – | –
COc1ccc2c(c[n+](C)c3c4ccccc4ccc23)c1O.O=S(=O)([O-])O [Compound A-4, 5-methyl-7-hydroxy-8-methoxy-benzo[c]phenanthridinium hydrogen sulfate salt] | 0.262 µg/mL | 0.26 µg/mL | 0.155 µg/mL | 0.051 µg/mL | 0.062 µg/mL | – | – | – | – | – | 10.9% | 26.5% | 46.4% | –
CC[n+]1cc2c(O)c(OC)ccc2c2ccc3ccccc3c21.O=S(=O)([O-])O [Compound A-3, 5-ethyl-7-hydroxy-8-methoxy-benzo[c]phenanthridinium hydrogen sulfate salt] | – | 0.69 µg/mL | – | – | – | – | – | – | – | – | – | – | – | –
